The results in this text go back to patent US20240034743A9, “TRICYCLIC COMPOUNDS AS EGFR INHIBITORS” (QILU PHARMACEUTICAL CO., LTD., priority 2020, published 2024).

Molecules are shown by their SMILES. Like-named read-outs stand apart in the source and are kept apart here.

For test [1], the system named is Ba/F3_L858R/T790M/C797S cells. The test can be described thus: Ba/F3_L858R/T790M/C797S cell proliferation inhibition assay (CellTiter-Glo). It is filed as cell-based. Particulars: Mus musculus. On the procedure: Ba/F3_L858R/T790M/C797S Cell Proliferation Inhibition Assay
In the assay, the inhibition effect of the compounds on the proliferation of Ba/F3_L858R/T790M/C797S cells was tested by adopting a CellTiter-Glo method, and the concentration IC50 of the compound for inhibiting half maximal growth of cells was obtained.
Ba/F3_L858R/T790M/C797S cells were constructed by Pharmaron Beijing Co., Ltd.
1640 medium, fetal bovine serum (FBS), Penicillin-Streptomyces, and GlutaMAX-I Supplement, purchased from GIBCO.
(§1) Brigatinib, purchased from Selleck.
(§2) CellTiter-Glo reagent, purchased from Promega.
1) Ba/F3_L858R/T790M/C797S cells were seeded in a 384-well plate at a density of 700 cells/well with 30 μL/well.
(§3) 2) Day 0: […] of gradiently-diluted compounds to be tested with a final concentration of DMSO of 0.1% was added to plate using Echo, and the plate was incubated in a cell incubator for 72 h (37° C., 5% CO2). […] of DMSO was added into each well in blank control group.
(§4) 3) Day 3: 30 μL Cell Titer-Glo reagent was added to each well, and the plate was in the dark under room temperature for 30 min.
(§5) 4) The chemiluminescent signal was detected by an Envision plate reader (PerkinElmer).
(§6) 5) Data analysis was performed using GraphPad Prism software to give the IC50 for compounds.

The test system of the next test is A431 cells (EGFR WT). The test can be described thus: A431 cell proliferation inhibition assay (CellTiter-Glo). In kind it is cell-based. Particulars: Homo sapiens. On the procedure: A431 Cell Proliferation Inhibition Assay
In the assay, the inhibition effect of the compounds on the proliferation of A431 cells was tested by adopting a CellTiter-Glo method, and the concentration IC50 of the compound for inhibiting half maximal growth of cells was obtained.
A431 cells, purchased from ATCC.
DMEM medium, fetal bovine serum (FBS), and Penicillin-Streptomycin, purchased from GIBCO.
as §1, §2
1) A431 cells were seeded in a 384-well plate at a density of 800 cells/well with 30 μL/well, and the plate was cultured in a cell incubator for 24 h (37° C., 5% CO2).
as §3, §4, §5, §6

Test [2] has as its system Ba/F3_Del19/T790M/C797S cells. Description: Ba/F3_Del19/T790M/C797S cell proliferation inhibition assay (CellTiter-Glo). It is filed as cell-based. Particulars: Mus musculus. On the procedure:
Ba/F3_Del19/T790M/C797S Cell Proliferation Inhibition Assay
In the assay, the inhibition effect of the compounds on the proliferation of Ba/F3_Del19/T790M/C797S cells was tested by adopting a CellTiter-Glo method, and the concentration IC50 of the compound for inhibiting half maximal growth of cells was obtained.
Ba/F3_Del19/T790M/C797S, purchased from Kyinno Biotechnology Co., Ltd. 1640 medium, fetal bovine serum (FBS), Penicillin-Streptomyces, and GlutaMAX-I Supplement, purchased from GIBCO.
as §1, §2
1) Ba/F3_Del19/T790M/C797S cells were seeded in a 384-well plate at a density of 700 cells/well with 30 μL/well.
as §3, §4, §5
Data analysis was performed using GraphPad Prism 6 software to give the IC50 for compounds.

Another test has as its target EGFR WT (wild type EGFR) (Homo sapiens (Human), UniProt P00533). Description: In vitro enzymatic TR-FRET (HTRF KinEASE-TK) kinase assay, EGFR WT. In kind it is biochemical. On the procedure: (I) In Vitro Enzymatic Experiment for EGFR WT and EGFR L858R/T790M/C797S
In the assay, the inhibition effect of the compound on the kinase activity of EGFR WT (wild type EGFR) and EGFR L858R/T790M/C797S was tested by adopting a time-resolved fluorescence resonance energy transfer (TR-FRET) method, and half maximal inhibitory concentration IC50 of the compound on the kinase activity of EGFR was obtained.
EGFR recombinase and EGFR L858R/T790M/C797S recombinase, purchased from Signalchem.
HTRF KinEASE-TK kit, purchased from Cisbio.
DTT, MnCl2, and MgCl2, purchased from Sigma.
ATP, purchased from Promega.
as §1
1) 1× working solution was prepared: 5 mM MgCl2; 1 mM DTT; 1 mM MnCl2 and 1× kinase buffer (in kit).
2) […] of gradiently-diluted compound was transferred to a 384-well plate using Echo 550 (Labcyte).
3) 5 μL of 2× EGFR WT or EGFR L858R/T790M/C797S recombinase solution was added to the 384-well plate, and the plate was incubated at room temperature for 10 min.
4) 5 μL of 2× TK-substrate-biotin substrate solution (containing ATP) was added to the 384-well plate, and the plate was incubated at room temperature for 40 min.
5) 5 μL of assay solution containing Sa-XL 665 HTRF and 5 μL of TK-antibody-Cryptatewas were added to the plate, and the plate was incubated at room temperature for 1 h.
6) The fluorescence signal values at 615 nm and 665 nm were measured for each well using an Envision microplate reader (PerkinElmer).
7) The ratio of fluorescence signal values at 665 nm and 615 nm was calculated for each well.
8) Data analysis was performed using GraphPad Prism software to give the IC50 for compounds.

[3] abbreviates: BaF3, cell proliferation, 72 h, CellTiter-Glo, read-out: Ba/F3 (L858R/T790M/C797S) IC50.
The mark [4] stands for this setting: A-431, cell proliferation, 72 h, CellTiter-Glo, read-out: A431 EGFR WT IC50.
Setting [5] is: BaF3, cell proliferation, 72 h, CellTiter-Glo, read-out: Ba/F3 (Del19/T790M/C797S) IC50.
[6] abbreviates: kinase activity, TR-FRET, read-out: EGFR (WT) IC50.
[7] abbreviates: BaF3, 72 h, read-out: Ba/F3 (L858R/T790M/C797S) IC50(nM).
Setting [8] is: A-431, 72 h, read-out: A431 EGFR WT IC50(nM).
[9] abbreviates: BaF3, 72 h, read-out: Ba/F3 (Del19/T790M/C797S) IC50(nM).

EGFR WT (wild type EGFR), sequence (P00533 25-1210): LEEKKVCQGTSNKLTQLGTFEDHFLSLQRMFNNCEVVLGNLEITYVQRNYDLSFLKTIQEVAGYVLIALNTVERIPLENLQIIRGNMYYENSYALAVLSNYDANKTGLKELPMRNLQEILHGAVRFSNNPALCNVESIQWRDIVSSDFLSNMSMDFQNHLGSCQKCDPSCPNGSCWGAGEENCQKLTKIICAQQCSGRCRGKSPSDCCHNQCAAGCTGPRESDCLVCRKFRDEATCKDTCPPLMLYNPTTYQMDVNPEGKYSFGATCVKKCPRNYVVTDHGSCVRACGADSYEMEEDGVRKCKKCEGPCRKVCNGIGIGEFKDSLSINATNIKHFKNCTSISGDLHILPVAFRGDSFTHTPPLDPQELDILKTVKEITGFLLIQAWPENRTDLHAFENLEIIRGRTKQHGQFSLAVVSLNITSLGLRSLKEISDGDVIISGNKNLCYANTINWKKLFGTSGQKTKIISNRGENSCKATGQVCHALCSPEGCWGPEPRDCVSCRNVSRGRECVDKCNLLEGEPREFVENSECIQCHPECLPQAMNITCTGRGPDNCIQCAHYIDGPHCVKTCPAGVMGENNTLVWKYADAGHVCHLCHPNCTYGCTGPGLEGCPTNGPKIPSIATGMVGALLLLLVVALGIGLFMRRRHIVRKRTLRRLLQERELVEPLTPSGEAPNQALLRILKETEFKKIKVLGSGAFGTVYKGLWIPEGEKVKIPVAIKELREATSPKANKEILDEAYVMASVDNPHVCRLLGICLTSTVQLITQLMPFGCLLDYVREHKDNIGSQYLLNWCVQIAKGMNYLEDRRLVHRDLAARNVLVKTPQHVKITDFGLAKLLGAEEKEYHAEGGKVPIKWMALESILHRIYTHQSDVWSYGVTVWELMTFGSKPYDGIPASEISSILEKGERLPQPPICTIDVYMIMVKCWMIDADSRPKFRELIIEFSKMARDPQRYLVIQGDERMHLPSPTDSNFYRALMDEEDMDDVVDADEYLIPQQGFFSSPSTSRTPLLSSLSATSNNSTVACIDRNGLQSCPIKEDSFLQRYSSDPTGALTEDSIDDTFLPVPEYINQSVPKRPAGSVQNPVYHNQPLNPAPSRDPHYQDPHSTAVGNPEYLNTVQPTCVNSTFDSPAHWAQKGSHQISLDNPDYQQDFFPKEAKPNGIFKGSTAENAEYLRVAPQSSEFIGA

For the compound `COc1cc2c(cc1Nc1ncc(Br)c(Nc3ccc4nccnc4c3NS(C)(=O)=O)n1)-c1cn(C)nc1CCN2C(C)C` [Compound 112], the IC50 in test [1] (setting [3]) is 10 to 50 nM; in the test on A431 cells (EGFR WT) (setting [4]), 100 to 1000 nM; in test [2] (setting [5]), < 10 nM; at EGFR WT (wild type EGFR) (setting [6]) it was 1 to 10 nM.
Turning to `COc1cc2c(cc1Nc1nc(Nc3ccc4nccnc4c3P(C)(C)=O)c3sccc3n1)-c1cnn(C)c1CCN2C` [Compound 61], the IC50 in test [1] (setting [3]) is < 10 nM; in the test on A431 cells (EGFR WT) (setting [4]), 10 to 50 nM; in test [2] (setting [5]), < 10 nM; at EGFR WT (wild type EGFR) (setting [6]), 1 to 10 nM.
As for `COc1cc2c(cc1Nc1ncc(Br)c(Nc3ccccc3P(C)(C)=O)n1)-c1cnc(C)n1CCN2C` [Compound 55], the IC50 in test [1] (setting [3]) lay within 100 to 1000 nM; in the test with A431 cells (EGFR WT) (setting [4]), 100 to 1000 nM; in test [2] (setting [5]), 10 to 50 nM; on EGFR WT (wild type EGFR) (setting [6]) it was 10 to 50 nM.
In the case of `COc1cc2c(cc1Nc1ncc(Br)c(Nc3ccccc3P(C)(C)=O)n1)-c1cnn(C)c1COC2` [Compound 46], the IC50 in test [1] (setting [3]) was 10 to 50 nM; in the test on A431 cells (EGFR WT) (setting [4]), 100 to 1000 nM; in test [2] (setting [5]), 10 to 50 nM; on EGFR WT (wild type EGFR) (setting [6]), 10 to 50 nM.
For `COc1cc2c(cc1Nc1ncc(Br)c(Nc3ccc4nccnc4c3N(C(C)C)S(C)(=O)=O)n1)-c1cnn(C)c1CCN2` [Compound 123], the IC50 is < 10 nM in test [1] (setting [7]), 100 to 1000 nM in the test on A431 cells (EGFR WT) (setting [8]), < 10 nM in test [2] (setting [9]) and 1 to 10 nM against EGFR WT (wild type EGFR).
In the case of `COc1cc2c(cc1Nc1ncc(Br)c(Nc3ccc4nccnc4c3P(C)(C)=O)n1)-c1cnn(C)c1CCN2` [Compound 16], the IC50 in test [1] (setting [7]) is < 10 nM; with A431 cells (EGFR WT) (setting [8]) it was 50 to 100 nM; in test [2] (setting [9]), < 10 nM; on EGFR WT (wild type EGFR) (setting [6]), 1 to 10 nM.
With `COc1cc2c(cc1Nc1ncc(Br)c(Nc3cccc4c3NS(=O)(=O)C4)n1)-c1cnn(C)c1CCN2C(C)C` [Compound 132], the IC50 in test [1] (setting [3]) is 10 to 50 nM; with A431 cells (EGFR WT) (setting [4]) it was > 1000 nM; in test [2] (setting [5]), 10 to 50 nM; on EGFR WT (wild type EGFR) (setting [6]), 10 to 50 nM.
Regarding `COc1cc2c(cc1Nc1ncc(Br)c(Nc3ccccc3S(=O)(=O)N(C)C)n1)-c1cnn(C)c1CCN2C(C)C` [Compound 126], the IC50 is 100 to 1000 nM in test [1] (setting [3]), > 1000 nM in the test with A431 cells (EGFR WT) (setting [4]), 100 to 1000 nM in test [2] (setting [5]) and 1 to 10 nM at EGFR WT (wild type EGFR) (setting [6]).
For the compound `COc1cc2c(cc1Nc1ncc(Br)c(Nc3ccc4nccnc4c3P(C)(C)=O)n1)-c1cnn(C)c1CN(C)C2=O` [Compound 9], the IC50 in test [1] (setting [3]) was 10 to 50 nM; in the test with A431 cells (EGFR WT) (setting [4]) it was 100 to 1000 nM; in test [2] (setting [5]) it was 10 to 50 nM; at EGFR WT (wild type EGFR) (setting [6]), 10 to 50 nM.
Take `COc1cc2c(cc1Nc1ncc(Br)c(Nc3ccccc3P(C)(C)=O)n1)-c1cnn(C3CCN(C)CC3)c1CCN2C(C)C` [Compound 75]: the IC50 in test [1] (setting [3]) fell in the range of 50 to 100 nM; in the test with A431 cells (EGFR WT) (setting [4]), 100 to 1000 nM; in test [2] (setting [5]) it was 10 to 50 nM; at EGFR WT (wild type EGFR) (setting [6]) it was 1 to 10 nM.
The like results for `COc1cc2c(cc1Nc1ncc(C)c(Nc3ccccc3P(C)(C)=O)n1)-c1cnn(C)c1CCN2C(C)C` [Compound 94] were, in that order, 10 to 50 nM, 100 to 1000 nM, 10 to 50 nM and 1 to 10 nM.
